No end group written: not given here.

For the data set, the system named is cells. In words: MTT assay for cytotoxicity. Format: cell-based. The settings on record: within a range of used concentrations, FIG. 3.

As for “VEHDKEFFHPRYHHR [BFP 2, Val-Glu-His-Asp-Lys-Glu-Phe-Phe-His-Pro-Arg-Tyr-His-His-Arg]”, the cytotoxicity entry was “not toxic to cells”.

These data come from patent publication EP2303911B1, “A SYNTHETIC PEPTIDE CONSISTING OF BONE FORMING PEPTIDE 2(BFP 2) FOR STIMULATING OSTEOBLAST DIFFERENTIATION, AND PHARMACEUTICAL COMPOSITION COMPRISING THE SYNTHETIC PEPTIDE” (Industry Foundation Of Chonnam National University, priority 2008, dated 2012).
